Laboratory results published in patent US9861099B2, “Composition for enhancing plant disease control effect of monosaccharide” (MITSUI CHEMICALS AGRO, INC., priority 2013, dated 2018).

Key:
Assay type in all cases: in vivo
Phakopsora pachyrhizi = assay: Soybean rust (SR) control test; settings: Test Example 10, D-tagatose only, treatment concentration 5%
[1] = system: Blumeria graminis f sp. hordei; assay: Barley powdery mildew (BPM) control test; settings: Test Example 10, D-tagatose only
Experimental: (BPM: Barley Powdery Mildew) Test plants (barley variety: Sekishinryoku) were planted followed by cultivating until the second leaf appeared. In the test, dilutions (5 ml/pot) obtained by diluting with distilled water so that each formula reached a prescribed concentration were sprayed. After inoculating the seedlings one day after spraying by shaking off conidia of Blumeria graminis f sp. hordei onto the seedlings, disease development was investigated 7 days after, and the effects thereof were evaluated. Disease development was evaluated using the following indicators for disease control tests evaluated according to the methods described above. Furthermore, preventive values were calculated based on the disease development.

[2] = system: Pseudoperonospora cubensis; assay: Cucumber downy mildew (CDM) control test; settings: for control effect against cucumber downy mildew: Test Example 10, D-tagatose only
Phakopsora ampelopsidis = assay: Grape vine rust (VR) control test; settings: Test Example 10, D-tagatose only, treatment concentration 5%
Experimental: (VR: Vine Rust) Test plants (grape variety: Neomuscat) were planted followed by cultivating until three to four first leaves appeared. In the test, dilutions (5 ml/pot) obtained by diluting with distilled water so that each formula reached a prescribed concentration were sprayed. After inoculating the seedlings one day after spraying by spraying with 1×10^7 organisms/ml of uredospores of Phakopsora ampelopsidis, the seedlings were allowed to stand for about 24 hours in an inoculation room at a room temperature of 20° C. to 23° C. to promote the onset of disease. Disease development was investigated 12 days after inoculation, and the effects thereof were evaluated. Disease development was evaluated using the following indicators for disease control tests evaluated according to the methods described above. Furthermore, preventive values were calculated based on the disease development.

Botrytis cinerea = assay: Tomato gray mold (GM) control test; settings: Test Example 10, D-tagatose only, treatment concentration 5%
Experimental: (GM: Gray Mold) Test plants (tomato variety: Oogata Fukuju) were planted followed by cultivating until three first leaves appeared. In the test, dilutions (5 ml/pot) obtained by diluting with distilled water so that each formula reached a prescribed concentration were sprayed. After inoculating the seedlings one day after spraying by spraying with 1×10^7 organisms/ml of conidia of Botrytis cinerea, the seedlings were allowed to stand for about 48 hours in an inoculation room at a room temperature of 20° C. to 23° C. to promote the onset of disease. Disease development was investigated 2 days after inoculation, and the effects thereof were evaluated. Disease development was evaluated using the following indicators for disease control tests evaluated according to the methods described above. Furthermore, preventive values were calculated based on the disease development.

Phytophthora infestans = settings: Test Example 10, D-tagatose only, treatment concentration 5%
Venturia inaequalis = assay: Apple scab (AS) control test; settings: Test Example 10, D-tagatose only, treatment concentration 5%
Experimental: (AS: Apple Scab) Test plants (apple variety: Ohrin) were planted followed by cultivating until four first leaves appeared. In the test, dilutions (5 ml/pot) obtained by diluting with distilled water so that each formula reached a prescribed concentration were sprayed. After inoculating the seedlings one day after spraying by spraying with 1×10^5 organisms/ml of conidia of Venturia inaequalis, the seedlings were allowed to stand for about 24 hours in an inoculation room at a room temperature of 18° C. to 20° C. to promote the onset of disease. Disease development was investigated 10 days after inoculation, and the effects thereof were evaluated. Disease development was evaluated using the following indicators for disease control tests evaluated according to the methods described above. Furthermore, preventive values were calculated based on the disease development.

Pythium ultimum = assay: Cabbage damping-off, soil irrigation treatment; settings: formula containing D-tagatose only, 80-fold dilution (D-tagatose 1%)
Experimental: The effects of the D-tagatose water-soluble powders containing anionic surfactant prepared in Example 11 on […] were evaluated. Test soil was inoculated by contacting with Pythium ultimum preliminarily cultured in wheat bran medium followed by planting the test plants (cabbage variety: Shikidori) therein. The soil was treated by irrigating at 3 L/m^2 with the formulations which had been 80-fold diluted with well water (treatment concentrations: D-tagatose 1%+assistant 0.25%). […] Effects were evaluated using the same evaluation method as Test Example 1. The protective value with respect to cabbage damping-off of a formula containing D-tagatose only was 29.9.

Magnaporthe grisea = settings: Test Example 10, D-tagatose only, treatment concentration 5%
Septoria tritici = assay: Wheat septoria leaf blotch (SLB) control test; settings: Test Example 10, D-tagatose only, treatment concentration 5%
Experimental: (SLB: Septoria Leaf Blotch) Test plants (wheat variety: Norin 61) were planted followed by cultivating until the second leaf appeared. In the test, dilutions (5 ml/pot) obtained by diluting with distilled water so that each formula reached a prescribed concentration were sprayed. After inoculating the seedlings one day after spraying by spraying with 1×10^7 organisms/ml of conidia of Septoria tritici, the seedlings were allowed to stand for about 24 hours in an inoculation room at a room temperature of 18° C. to promote the onset of disease. Disease development was investigated 14 days after inoculation, and the effects thereof were evaluated. Disease development was evaluated using the following indicators for disease control tests evaluated according to the methods described above. Furthermore, preventive values were calculated based on the disease development.

Puccinia recondita = assay: Wheat brown rust (WR) control test
Pythium aphanidermatum = assay: Pythium red blight of bentgrass, soil irrigation treatment; settings: Comparative Example, main agent only (D-tagatose 80 parts), no assistant; 100-fold dilution, soil irrigation 3 L/m^2; five days after inoculation
Experimental: The effects of the D-tagatose water-soluble powders containing anionic surfactant prepared in Example 11 on grass red blight were evaluated. Test plants (grass variety: Bentgrass) were planted, and three weeks later, cut to a height of 1 cm prior to use in the test. In the test, after inoculating the seedlings with Pythium aphanidermatum preliminarily cultured in wheat bran medium, dilutions obtained by diluting each formula 100-fold with well water were used to treat soil by irrigating at 3 L/m^2 (treatment concentrations: D-tagatose 0.8%+assistant 0.2%). After investigating the onset of disease five days after inoculation, control values were calculated from the diseased area. Effects were evaluated using the same evaluation method as Test Example 10.

[3] = system: Colletotrichum orbiculare; assay: Cucumber anthracnose (CA) control test; settings: Test Example 10, D-tagatose only, treatment concentration 5%
Experimental: (CA: Cucumber Anthracnose) Test plants (cucumber variety: Sagami Hanjiro) were planted followed by cultivating until the first leaf appeared. In the test, dilutions (5 ml/pot) obtained by diluting with distilled water so that each formula reached a prescribed concentration were sprayed. After inoculating the seedlings one day after spraying by spraying with 1×10^7 organisms/ml of conidia of Colletotrichum orbiculare, the seedlings were allowed to stand for about 24 hours in an inoculation room at a room temperature of 20° C. to 23° C. to promote the onset of disease. Disease development was investigated 10 days after inoculation, and the effects thereof were evaluated. Disease development was evaluated using the following indicators for disease control tests evaluated according to the methods described above. Furthermore, preventive values were calculated based on the disease development.

Plasmopara viticola = assay: Grape vine downy mildew (VDM) control test; settings: for control effect against grape vine downy mildew: Test Example 10, D-tagatose only
Sphaerotheca cucurbitae = assay: Cucumber powdery mildew (CPM) control test; settings: for control effect against cucumber powdery mildew: Test Example 10, D-tagatose only
[4] = Test Example 12, D-tagatose 5 parts + Assistant 1 5 parts, 10-fold dilution (D-tagatose 0.5% + Assistant 1 0.5%)
[5] = formula containing D-tagatose only, treatment concentration 0.8%

Structure (SMILES): O=C(CO)[C@@H](O)[C@@H](O)[C@H](O)CO [D-tagatose, reference compound]
- effects against soybean rust (Phakopsora pachyrhizi): not adequate
- control effect against barley powdery mildew ([1]; treatment concentration 0.8%): not adequate
- control effect against barley powdery mildew ([1]; treatment concentration 5%): high control effect
- control effect against cucumber downy mildew ([2]; treatment concentration 0.8%): not adequate
- control effect against cucumber downy mildew ([2]; treatment concentration 5%): high control effect
- Protective Value Index CDM, Assistant 1 [2, 4]: 2 (Preventive value of 60 to less than 80)
- preventive value, cucumber downy mildew ([2]; formula containing D-tagatose only, treatment concentration 0.4%): about 50 (40 to 60)
- effects against grape vine rust (Phakopsora ampelopsidis): not adequate
- effects against tomato gray mold (Botrytis cinerea): not adequate
- effects against tomato late blight (Phytophthora infestans): not adequate
- effects against apple scab (Venturia inaequalis): not adequate
- protective value, cabbage damping-off (Pythium ultimum): 29.9
- effects against rice blast (Magnaporthe grisea): not adequate
- effects against wheat speckled leaf blotch (Septoria tritici): not adequate
- effects against wheat rust (Puccinia recondita; Test Example 10, D-tagatose only, treatment concentration 5%): not adequate
- preventive value, wheat rash (Puccinia recondita; [5]): about 5 (0 to 10)
- Preventive Value Indices, bentgrass red blight (Pythium aphanidermatum): 1 (Preventive value of 30 to less than 60)
- effects against cucumber anthracnose [3]: not adequate
- control effect against grape vine downy mildew (Plasmopara viticola; treatment concentration 0.8%): not adequate
- control effect against grape vine downy mildew (Plasmopara viticola; treatment concentration 5%): high control effect
- Protective Value Index VDM, Assistant 1 (Plasmopara viticola; [4]): 1 (Preventive value of 30 to less than 60)
- preventive value, grape vine downy mildew (Plasmopara viticola; [5]): about 40 (30 to 50)
- control effect against cucumber powdery mildew (Sphaerotheca cucurbitae; treatment concentration 0.8%): not adequate
- control effect against cucumber powdery mildew (Sphaerotheca cucurbitae; treatment concentration 5%): high control effect
- Protective Value Index CPM, Assistant 1 (Sphaerotheca cucurbitae; [4]): 2 (Preventive value of 60 to less than 80)
- preventive value, cucumber powdery mildew (Sphaerotheca cucurbitae; [5]): about 50 (40 to 60)
